Blank lines part the entries; values can stand above or below the molecule they belong to.
Experiments:
[1] = test system: soluble epoxide hydrolase (sEH); experiment: cellular sEH activity (DHETs/EETs ratio) in human M2 macrophages; type: cell-based
From the text: (§1) Leukocyte reduction system chamber (LRSC) filters were provided by the Central Institute for Blood Transfusion and Immunological Department of Tirol Kliniken GmbH (Austria) with the informed consent of the volunteers. Only healthy blood donors between 18 and 65 years of age without medication for chronic diseases, fever, or deficiency symptoms and after physical examinations by trained medical personnel were included in the study. Human peripheral blood mononuclear cells (PBMC) were freshly isolated from LRSC filters. […]
(§2) Lipid mediator biosynthesis in human M1/M2 macrophages (1.5 mL PBS pH 7.4 plus 1 mM CaCl2) was stimulated with Staphylococcus aureus (LS1)-conditioned medium (1.0%, 3 h) after 15 min preincubation with DMSO (0.1%) or test compounds and stopped by addition of ice-cold MeOH (2.5 mL) containing deuterium-labeled internal standards (200 pg d8-5S-hydroxyeicosatetraenoic acid (HETE), d4-leukotriene (LT)B4, d5-lipoxin (LX)A4, d5-resolvin (Rv)D2, d4-prostaglandin (PG)E2, and 2000 pg d8-arachidonic acid (Cayman Chemical, Ann Arbor, MI, USA)). […] Transitions selected for quantitation and the corresponding declustering potential (DP), entrance potential (EP), collision energy (CE) and collision cell exit potential (CXP) are listed in Table 4. […]

5-LOX product formation = 5-LOX product formation in activated human M1 macrophages (metabololipidomics); settings: Macrophage, cell-based, Staphylococcus aureus-conditioned medium 1.0%, 3 h, 15 min preincubation, read-out: IC50 for inhibition of 5-LOX product formation
From the text: (§3) Leukocyte reduction system chamber (LRSC) filters were provided by the Central Institute for Blood Transfusion and Immunological Department of Tirol Kliniken GmbH (Austria) with the informed consent of the volunteers. Only healthy blood donors between 18 and 65 years of age without medication for chronic diseases, fever, or deficiency symptoms and after physical examinations by trained medical personnel were included in the study. Human peripheral blood mononuclear cells (PBMC) were freshly isolated from LRSC filters. After dilution of the cell concentrates in PBS pH 7.4 containing 12.5 mM citrate and 14 mM glucose (130 mL, 37 °C), immune cells were separated via isopycnic density gradient centrifugation (400× g, 20 min, RT) using Histopaque®-1077 (Sigma-Alrich, St. Louis, MO, USA). PBMC were obtained from the interphase after hypotonic lysis of erythrocytes using water (2–5 mL) and two consecutive washing steps with PBS pH 7.4 (50 mL) (270× g, 5 min, RT). […]
(§4) Lipid mediator biosynthesis in human M1/M2 macrophages (1.5 mL PBS pH 7.4 plus 1 mM CaCl2) was stimulated with Staphylococcus aureus (LS1)-conditioned medium (1.0%, 3 h) after 15 min preincubation with DMSO (0.1%) or test compounds and stopped by addition of ice-cold MeOH (2.5 mL) containing deuterium-labeled internal standards (200 pg d8-5S-hydroxyeicosatetraenoic acid (HETE), d4-leukotriene (LT)B4, d5-lipoxin (LX)A4, d5-resolvin (Rv)D2, d4-prostaglandin (PG)E2, and 2000 pg d8-arachidonic acid (Cayman Chemical, Ann Arbor, MI, USA)). […] The gradient of mobile phase A (water/MeOH, 90/10, 0.01% acetic acid) and mobile phase B (MeOH, 0.01% acetic acid) was ramped at a flow rate of 0.35 mL/min from 35.6% to 84.4% B within 12.5 min followed by 5 min of isocratic elution at 97.8% B. Lipid mediators and fatty acids were analyzed in the negative ion mode by scheduled multiple reaction monitoring (detection window: 120 s) using a QTRAP 6500^+ Mass Spectrometer (Sciex), which was equipped with an electrospray ionization source. […]

COX product formation = COX product formation in activated human M1 macrophages (metabololipidomics); type: cell-based
From the text: as §3, §4

human M2 macrophages = experiment: lipid mediator profile (SPMs, precursors, free PUFAs) in activated human M2 macrophages; type: cell-based
From the text: Leukocyte reduction system chamber (LRSC) filters were provided by the Central Institute for Blood Transfusion and Immunological Department of Tirol Kliniken GmbH (Austria) with the informed consent of the volunteers. Only healthy blood donors between 18 and 65 years of age without medication for chronic diseases, fever, or deficiency symptoms and after physical examinations by trained medical personnel were included in the study. Human peripheral blood mononuclear cells (PBMC) were freshly isolated from LRSC filters. After dilution of the cell concentrates in PBS pH 7.4 containing 12.5 mM citrate and 14 mM glucose (130 mL, 37 °C), immune cells were separated via isopycnic density gradient centrifugation (400× g, 20 min, RT) using Histopaque®-1077 (Sigma-Alrich, St. Louis, MO, USA). PBMC were obtained from the interphase after hypotonic lysis of erythrocytes using water (2–5 mL) and two consecutive washing steps with PBS pH 7.4 (50 mL) (270× g, 5 min, RT).
To differentiate monocytes, which are the predominant cell type in PBMC, towards M0 macrophages, they were first stimulated with 20 ng/mL GM-CSF or M-CSF (HiSS Diagnostics GmbH, Freiburg, Germany) for 6 days in macrophage medium (RPMI 1640 supplemented with 10% FCS, 2 mmol/L L-glutamine, 100 U/mL penicillin and 100 μg/mL streptomycin). These monocyte-derived macrophages were polarized for another 48 h in macrophage medium with 100 ng/mL lipopolysaccharide and 20 ng/mL interferon-γ (Peprotech, Hamburg, Germany) to obtain M1 or with 20 ng/mL interleukin-4 (Peprotech, Hamburg, Germany) to obtain M2 phenotypes.
Lipid mediator biosynthesis in human M1/M2 macrophages (1.5 mL PBS pH 7.4 plus 1 mM CaCl2) was stimulated with Staphylococcus aureus (LS1)-conditioned medium (1.0%, 3 h) after 15 min preincubation with DMSO (0.1%) or test compounds and stopped by addition of ice-cold MeOH (2.5 mL) containing deuterium-labeled internal standards (200 pg d8-5S-hydroxyeicosatetraenoic acid (HETE), d4-leukotriene (LT)B4, d5-lipoxin (LX)A4, d5-resolvin (Rv)D2, d4-prostaglandin (PG)E2, and 2000 pg d8-arachidonic acid (Cayman Chemical, Ann Arbor, MI, USA)). Samples were incubated at −20 °C for at least 1 h to precipitate proteins and then centrifuged (750× g, 10 min, 4 °C). The supernatant was mixed with acidified water (7 mL, pH 3.5) and loaded onto solid phase cartridges (Sep-Pak® Vac 6cc 500 mg/6 mL C-18 (Waters, Milford, MA, USA)), which were conditioned with MeOH (6 mL) and equilibrated with water (2 mL). Columns were washed with water (6 mL) and hexane (6 mL, 4 °C) before lipid mediators were eluted with methyl formiate (6 mL). The organic phase was evaporated to dryness using a TurboVap LV (Biotage, Uppsala, Sweden) and the remaining lipids were dissolved in MeOH/water (1:1), centrifuged twice (21,100× g, 4 °C, 5 min), and subjected to UPLC-MS/MS analysis. Chromatographic separation of lipid mediators was carried out at 55°C on an Acquity UPLC BEH C-18 column (130Å, 1.7 μm, 2.1 × 100 mm, Waters) using an ExionLC AD UHPLC system (Sciex, Framingham, MA, USA). The gradient of mobile phase A (water/MeOH, 90/10, 0.01% acetic acid) and mobile phase B (MeOH, 0.01% acetic acid) was ramped at a flow rate of 0.35 mL/min from 35.6% to 84.4% B within 12.5 min followed by 5 min of isocratic elution at 97.8% B. Lipid mediators and fatty acids were analyzed in the negative ion mode by scheduled multiple reaction monitoring (detection window: 120 s) using a QTRAP 6500^+ Mass Spectrometer (Sciex), which was equipped with an electrospray ionization source. The curtain gas was set to 40 psi, the collision gas to medium, the ion spray voltage to −4000 V, the heated capillary temperature to 500 °C, and the sheath and auxiliary gas pressure to 40 psi. Transitions selected for quantitation and the corresponding declustering potential (DP), entrance potential (EP), collision energy (CE) and collision cell exit potential (CXP) are listed in Table 4. […]

human recombinant 5-LOX = biological target: T1, human recombinant 5-LOX (Homo sapiens, UniProt P09917); experiment: cell-free 5-lipoxygenase activity assay; type: biochemical; settings: arachidonic acid 20 µM, 10 min at 37 °C, read-out: IC50 for inhibition of human recombinant 5-LOX
T1 construct: purchased Cayman Chemical
T1 sequence (P09917 1-674): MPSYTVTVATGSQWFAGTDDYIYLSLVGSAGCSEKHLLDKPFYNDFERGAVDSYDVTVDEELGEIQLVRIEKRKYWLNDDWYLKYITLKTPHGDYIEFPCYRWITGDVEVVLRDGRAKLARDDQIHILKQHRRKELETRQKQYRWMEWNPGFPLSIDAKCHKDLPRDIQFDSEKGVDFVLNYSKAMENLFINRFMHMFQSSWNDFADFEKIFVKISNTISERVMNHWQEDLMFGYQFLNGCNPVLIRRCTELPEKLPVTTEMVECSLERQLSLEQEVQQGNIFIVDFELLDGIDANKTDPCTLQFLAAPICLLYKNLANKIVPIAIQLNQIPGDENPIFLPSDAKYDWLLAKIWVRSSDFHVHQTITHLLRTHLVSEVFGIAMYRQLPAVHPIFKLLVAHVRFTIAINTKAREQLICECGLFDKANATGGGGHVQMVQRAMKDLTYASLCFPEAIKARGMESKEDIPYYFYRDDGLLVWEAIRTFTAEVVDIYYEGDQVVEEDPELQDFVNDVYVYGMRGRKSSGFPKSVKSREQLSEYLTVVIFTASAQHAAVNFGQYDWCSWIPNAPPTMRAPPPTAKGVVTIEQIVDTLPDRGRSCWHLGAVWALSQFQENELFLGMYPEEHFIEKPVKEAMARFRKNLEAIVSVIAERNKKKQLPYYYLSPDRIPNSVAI
Procedure: Human recombinant 5-LOX (Cayman Chemical, 10 U) was pre-treated with vehicle (DMSO, 0.1%) or test compounds for 10 min in 1 mL PBS pH 7.4, 1 mM EDTA and 1 mM ATP on ice before CaCl2 (2 mM) and arachidonic acid (20 µM) were added. After 10 min at 37 °C, the reaction was stopped by the addition of ice-cold MeOH (1 mL) and PGB1 (2 ng) as internal standard. Clean-Up C-18 Endcapped SPE cartridges (100 mg, 10 mL, UCT, Bristol, PA, USA) were conditioned with MeOH (1 mL, twice) and equilibrated with water (1 mL). After acidification (530 µL PBS plus 60 mM HCl) and centrifugation (750× g, 10 min, 4 °C), supernatants containing lipid mediators were loaded onto the columns, which were first washed with water (1 mL) and then MeOH/water (25:75, 1 mL). After elution of lipid mediators with MeOH (300 µL), water (120 µL) was added and samples were centrifuged (21,100× g, 10 min, 4 °C) and subjected to LC-PDA analysis. 5-LOX products, including all trans-isomers of LTB4 and 5-HETE, were separated at 40 °C and a flow rate of 0.45 mL/min on a Kinetex C-18 LC column (100Å, 1.3 μm, 2.1 × 50 mm, Phenomenex, Torrance, CA) using a Nexera X2 UHPLC system (Shimadzu, Kyoto, Japan). The step gradient of mobile phase A (water/MeOH, 50/50, 0.05% trifluoroacetic acid) and mobile phase B (MeOH, 0.05% trifluoroacetic acid) was kept at 14% B for 2 min, followed by 46% B for 2 min and 90% B for another 2 min. LTB4 isomers and 5-HETE were detected with a photodiode array detector (SPD-M20A, Shimadzu, Kioto, Japan) at 280 nm and 235 nm, respectively. Lipid quantitieswere calculated by internal calibration using PGB1 as reference standard.
Data are expressed as mean ± s.e.m. and single data from n = 4–8 independent experiments. […] Data were analyzed using Microsoft Excel (Office 365, Version: 2204, Albuquerque, New Mexico), and statistics were performed using GraphPad Prism (GraphPad Software version 9.3.1, Dotmatics, Boston, UK). IC50 values were calculated by non-linear regression (GraphPad Prism 9.3.1).

12/15-LOX product levels = experiment: 12- and 15-LOX product levels in activated macrophages; type: cell-based, human
From the text: as §1, §2

cell apoptosis = test system: cell apoptosis; set-up: method as in PMID 18840408, PMID 18262737; settings: cited from earlier work
[2] = test system: 5-lipoxygenase (5-LOX) pathway; set-up: method as in PMID 28165233; settings: cited from earlier work
[3] = test system: microsomal prostaglandin E2 synthase (mPGES)-1; set-up: method as in doi:10.1016/j.phanu.2014.05.001; settings: cited from earlier work

- ratio of DHETs/EETs (indicator of sEH activity) [1]: only increased by trend
- IC50 (5-LOX product formation): 8.5 µM
- IC50 (human recombinant 5-LOX): 4.6 µM
SMILES: COc1cc2c(c(OC)c1O)-c1c(ccc(OC)c1O)CC2 [Compound 10, 9,10-dihydro-2,4,6-trimethoxy-3,5-phenanthrenediol]
- effect on COX product formation (COX product formation): substantially elevated
- maresin 2 (MaR2) levels (human M2 macrophages): selectively increased
- production of specialized pro-resolving mediators (SPMs) (human M2 macrophages): stimulated

- ratio of DHETs/EETs (indicator of sEH activity) [1]: significantly elevated
- IC50 (5-LOX product formation): 1 µM
- IC50 (COX product formation; Macrophage, cell-based, Staphylococcus aureus-conditioned medium, read-out: IC50 for inhibition of COX product (prostanoid) formation): 2000 nM
- IC50 (human recombinant 5-LOX): 20.1 µM
SMILES: COC1=CC(=O)C2=C(C1=O)c1c(cc(OC)cc1OC)CC2 [Compound 5, 9,10-dihydro-3,5,7-trimethoxy-1,4-phenanthrenequinone]
- 12/15-LOX product levels (12/15-LOX product levels): slightly but significantly lowered
- D-series Rv (RvDs) levels (human M2 macrophages): but not RvDs levels
- maresin 2 (MaR2) levels (human M2 macrophages): elevated
- protectins (PDs) levels (human M2 macrophages): elevated
- release of polyunsaturated fatty acids (PUFAs) (human M2 macrophages): decreased

SMILES: COC1=CC(=O)c2ccc3cc(OC)cc(O)c3c2C1=O [Compound 4, denbinobin]
- cell apoptosis induction (cell apoptosis): cell apoptosis-inducing properties

SMILES: COc1cc(O)cc(CCc2ccc(OC)c(O)c2CC=C(C)C)c1 [Compound 6, canniprene]
- production of inflammatory eicosanoids via the 5-LOX pathway [2]: potently inhibits

- IC50 (5-LOX product formation): 3.8 µM
- IC50 (human recombinant 5-LOX): 6.9 µM
SMILES: COc1cc(O)c2c(c1)CCc1cc(OC)c(OC)c(O)c1-2 [Compound 9, 9,10-dihydro-2,3,7-trimethoxy-4,5-phenanthrenediol]
- effect on COX product formation (COX product formation): substantially elevated
- D-series Rv (RvDs) levels (human M2 macrophages): raised
- formation of SPM precursors, including 17-HDHA, 15-HEPE and 15-HETE (human M2 macrophages): enhanced formation
- maresin 2 (MaR2) levels (human M2 macrophages): raised
- production of specialized pro-resolving mediators (SPMs) (human M2 macrophages): stimulated
- protectins (PDs) levels (human M2 macrophages): raised

SMILES: COc1cc(-c2cc(=O)c3c(O)c(C/C=C(\C)CCC=C(C)C)c(O)cc3o2)ccc1O [Compound 7a, cannflavin A]
- inhibition of mPGES-1 [3]: potent inhibitors

SMILES: COc1cc(-c2cc(=O)c3c(O)c(CC=C(C)C)c(O)cc3o2)ccc1O [Compound 8, cannflavin B]
- inhibition of mPGES-1 [3]: potent inhibitors

Reference: publication PMC9414986, “Phytochemical Characterization of Cannabis sativa L. Chemotype V Reveals Three New Dihydrophenanthrenoids That Favorably Reprogram Lipid Mediator Biosynthesis in Macrophages” (Plants, 2022)
